Experimental findings from ChEMBL document CHEMBL1201862, “PubChem BioAssay data set” (2004) are described below.

The structures appear in SMILES notation.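 In this assay, cells in 96-well plates receive the compound at five concentrations for 48 hours. Endpoints are linearly interpolated between the surrounding concentrations. GI50 = concentration required for 50% inhibition of growth.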 The source made the active and inactive calls. Rule as the data show it: active = GI50 up to about 1.1 µM and inactive = higher.

Some test systems named below: DLD-1; DMS-114; DMS-273; KM-20L2; LXFL 529; SNB-78; XF498; HOP-18; RXF 631.
Common to all, as to experiment: growth of human tumour cells (NCI), 48 h

As for `COc1ccc(CNc2nc3c(NC(C)=O)cc(C(F)(F)F)cc3nc2-c2ccccc2)cc1OC`, the GI50 with DLD-1 was > 100 µM (inactive); with DMS-114, 15.2 µM (inactive); in the test on DMS-273, 21.9 µM (inactive); in the test with KM-20L2, > 100 µM (inactive); in the test on LXFL 529, 16.4 µM (inactive); in the test on SNB-78, 10.7 µM (inactive). Moreover, the GI50 with XF498 was 78 µM (inactive).

As for `Cc1cccc(C)c1NC(=O)/C(Cl)=C(/Cl)C(=O)O`, the GI50 was 7.28 µM (inactive) in the test on DLD-1; 21.3 µM (inactive) in the test with DMS-114; 18.6 µM (inactive) in the test on DMS-273; 20.3 µM (inactive) with HOP-18; 6.92 µM (inactive) in the test on KM-20L2; 8.11 µM (inactive) in the test with LXFL 529. In addition, the GI50 with SNB-78 was 28.2 µM (inactive); in the test on XF498, 15 µM (inactive).

For the molecule `Cc1cccc(C(C)(C)C)c1NC(=O)C(C#N)C1=C(Cl)C(=O)c2ccccc2C1=O` (centres undefined), the GI50 in the test with DLD-1 was 14.4 µM (inactive); in the test with DMS-114, 16.6 µM (inactive); with DMS-273, 17.8 µM (inactive); in the test with HOP-18, 12 µM (inactive); in the test on KM-20L2, 20.5 µM (inactive); in the test with LXFL 529, 15.5 µM (inactive). The values for the GI50 with SNB-78 and with XF498 were 14.4 µM (inactive) and 16 µM (inactive), respectively.

Take `Cc1ccc(C(c2c(O)c3ccccc3n(-c3ccccc3)c2=O)c2c(O)c3ccccc3n(-c3ccccc3)c2=O)cc1`: the GI50 with DLD-1, in the test with DMS-114, in the test with DMS-273, in the test with HOP-18, in the test with KM-20L2 and with LXFL 529 was > 100 µM (inactive) each time. The GI50 in the test on SNB-78 and with XF498 was > 100 µM (inactive) each time.

`CC1(C)OCN(c2ccc(S(N)(=O)=O)cc2)Cn2c1nc1ccccc12`: the GI50 in the test on DLD-1, with DMS-114, in the test with DMS-273, with HOP-18, in the test with KM-20L2 and in the test with LXFL 529 was > 100 µM (inactive) each time. In addition, the GI50 in the test with SNB-78 and in the test on XF498 was > 100 µM (inactive) in each case.

With `CN(C)c1ccc(C(=C2C=CC(=[N+](C)C)C=C2)c2ccc(N(C)C)cc2)cc1` [GENTIAN VIOLET], the GI50 with DLD-1 is 0.0673 µM (active); with DMS-114, 0.13 µM (active); in the test on DMS-273, 0.22 µM (active); in the test on KM-20L2, 0.206 µM (active); in the test with LXFL 529, 0.0579 µM (active); in the test with RXF 631, 0.185 µM (active). Also, the figures for the GI50 in the test on SNB-78 and in the test on XF498 were 0.637 µM (active) and 0.0363 µM (active), respectively.

For the molecule `COc1ccc(-c2c(N)[n+]([O-])c3ccccc3[n+]2[O-])cc1OC`, the GI50 in the test with DLD-1, in the test with DMS-114, in the test on DMS-273, with HOP-18, with KM-20L2 and in the test on LXFL 529 was > 100 µM (inactive) in each case. Moreover, the results for the GI50 in the test on RXF 631 and with SNB-78 were 86.3 µM (inactive) and > 100 µM (inactive), respectively.

For the molecule `CC1OC(OC2C[C@](O)(C(=O)CF)Cc3c(O)c4c(c(O)c32)C(=O)c2ccccc2C4=O)CC(N)C1O` (some centres undefined), the GI50 with DLD-1 is 0.0484 µM (active); in the test with DMS-114 it was < 0.0109 µM (active); with DMS-273, < 0.01 µM (active); with KM-20L2, 0.0574 µM (active); with LXFL 529, 0.0596 µM (active); in the test with SNB-78 it was 0.241 µM (active). Further, the GI50 with XF498 is < 0.0164 µM (active).

As for `C=C1C(=O)OC2CC3(C)C=CC(=O)C(=C)C3CC12` (centres undefined), the GI50 was 0.329 µM (active) in the test with DLD-1; 3.61 µM (inactive) in the test with DMS-114; 1.22 µM (inactive) in the test with DMS-273; 3.06 µM (inactive) in the test on HOP-18; 2.28 µM (inactive) in the test on KM-20L2; 0.664 µM (active) in the test with LXFL 529. Also, the results for the GI50 in the test with SNB-78 and with XF498 were 2.43 µM (inactive) and 1.72 µM (inactive), respectively.

With `COC(=O)C1C(/C=C/c2ccoc2)ON2CCC[C@@H]12` (some centres undefined), the GI50 in the test on DLD-1 was > 100 µM (inactive); in the test on DMS-114, > 100 µM (inactive); with DMS-273, 36.2 µM (inactive); in the test with HOP-18, 70.3 µM (inactive); with KM-20L2, > 100 µM (inactive); in the test on LXFL 529, > 100 µM (inactive). Also, the GI50 with SNB-78 is > 100 µM (inactive).

On to `O=C(CCc1nnc(S)[nH]1)Nc1cc(Cl)c(Cl)cc1Cl`, for which the GI50 with DMS-114, in the test on DMS-273, in the test on KM-20L2, in the test with LXFL 529, in the test on RXF 631 and in the test with SNB-78 was > 100 µM (inactive) each time. Moreover, in the test on XF498, the GI50 is > 100 µM (inactive).

`Cc1ccc(/C=C/C(=O)c2sc(C(N)=S)nc2C)cc1`: the GI50 in the test with DLD-1, with DMS-273, in the test with HOP-18, with KM-20L2 and in the test on SNB-78 was > 100 µM (inactive) in each case.

As to `Cn1c2ccccc2c2cc(-c3ccccc3)c3c(c21)C(=O)c1ccccc1C3=O`, the GI50 in the test with DLD-1 is 13.3 µM (inactive); in the test with DMS-114 it was 12.5 µM (inactive); in the test on DMS-273, 17 µM (inactive); with LXFL 529, 14.3 µM (inactive); in the test with RXF 631, 34 µM (inactive); in the test with SNB-78, 15.1 µM (inactive). Besides, the GI50 in the test with XF498 was 14.6 µM (inactive).

Take `NC(=O)NO` [HYDROXYUREA]: the GI50 was 1450 µM (inactive) in the test on DLD-1; 137 µM (inactive) with DMS-273; 933 µM (inactive) in the test on HOP-18; 436 µM (inactive) in the test on KM-20L2; 713 µM (inactive) in the test with LXFL 529; 2160 µM (inactive) in the test on SNB-78. For the same molecule, the GI50 in the test with XF498 is 820 µM (inactive).

Turning to `Nn1c(CCCl)nc2c(Br)cc(Br)cc2c1=O`, the GI50 in the test on DLD-1 was 26.8 µM (inactive); with DMS-114, 22.5 µM (inactive); in the test with DMS-273, 30.3 µM (inactive); in the test on HOP-18, 33.3 µM (inactive); with KM-20L2, 26 µM (inactive); in the test on LXFL 529, 24.7 µM (inactive). The GI50 in the test with SNB-78 was 34 µM (inactive); in the test on XF498, 20.6 µM (inactive).

Consider `CN(C)c1ccc(C(=C(c2ccc(N(C)C)cc2)c2ccc(N(C)C)cc2)c2ccc(N(C)C)cc2)cc1`, for which the GI50 in the test on DLD-1 is 16.1 µM (inactive); with DMS-114 it was 15.4 µM (inactive); in the test with DMS-273, 15.8 µM (inactive); in the test with HOP-18 it was 7.01 µM (inactive); in the test with KM-20L2, 16.9 µM (inactive); with LXFL 529, 12.3 µM (inactive). For the same molecule, the GI50 with RXF 631 is 13.6 µM (inactive); with SNB-78, 82.2 µM (inactive).

In the case of `Cc1ccc(S(=O)OC2C3CC4CC(C3)CC2C4)cc1` (centres undefined), the GI50 in the test with DLD-1, in the test on DMS-114, with DMS-273, in the test with HOP-18, with KM-20L2 and in the test with LXFL 529 was > 100 µM (inactive) each time. Also, the GI50 with SNB-78 and with XF498 was > 100 µM (inactive) each time.

`Cc1cc2c(c3oc(C4(C)OC4C4OC4C)cc(=O)c13)C(=O)c1c(O)c(C3CC(C)(N(C)C)C(O)C(C)O3)cc(C3CC(N(C)C)C(O)C(C)O3)c1C2=O` (centres undefined): the GI50 in the test with DLD-1 is 0.0025 µM (active); in the test with DMS-273, 0.0025 µM (active); in the test with HOP-18 it was 0.00069 µM (active); in the test with LXFL 529, 0.000227 µM (active); in the test with RXF 631, 0.000161 µM (active); in the test on SNB-78, 0.0025 µM (active).

Consider `CCCCN(CCCC)CC(C(=O)Nc1ccc([N+](=O)[O-])cc1[N+](=O)[O-])/C(C)=N\NC(=O)c1ccncc1` (centres undefined), for which the GI50 in the test on DLD-1, in the test with DMS-114, with DMS-273, in the test on KM-20L2, with LXFL 529 and in the test with RXF 631 was > 100 µM (inactive) in each case. Also, the GI50 in the test with SNB-78 and in the test on XF498 was > 100 µM (inactive) throughout.

Regarding `Clc1ccc2ns[s+]c2c1`, the GI50 in the test on DLD-1 was 0.625 µM (active); with DMS-114, 2.61 µM (inactive); in the test on DMS-273, 0.815 µM (active); in the test with HOP-18, 11.7 µM (inactive); in the test on KM-20L2 it was 0.317 µM (active); with LXFL 529, 0.166 µM (active). Also, the GI50 with SNB-78 and in the test on XF498 was > 100 µM (inactive) each time.

In the case of `COc1ccccc1NC(=O)CC(=O)N/N=C/c1ccc(N(CCC#N)S(=O)(=O)c2ccccc2)cc1`, the GI50 in the test with DLD-1, in the test with DMS-114, in the test with HOP-18, in the test with KM-20L2, with LXFL 529 and in the test with SNB-78 was > 100 µM (inactive) in each case. Moreover, the GI50 with XF498 is > 100 µM (inactive).

Consider `COC(=O)C1=Cc2c(cc(OC)c(OC)c2OC)[C@H](c2ccc(OC)c(OC)c2OC)C1C(=O)OC` (some centres undefined), for which the GI50 in the test with DLD-1 is > 100 µM (inactive); in the test with DMS-114, 61.7 µM (inactive); in the test with DMS-273, 29.5 µM (inactive); in the test with KM-20L2 it was > 100 µM (inactive); in the test on LXFL 529 it was > 100 µM (inactive); with RXF 631, 71.8 µM (inactive). In addition, the GI50 in the test on SNB-78 was 40.8 µM (inactive).

Turning to `CN(C(=O)c1ccc(Cl)cc1)C(=S)N1CCN(c2ccccn2)CC1`, the GI50 in the test on DLD-1 is > 100 µM (inactive); in the test on DMS-114, 69.8 µM (inactive); with DMS-273, > 100 µM (inactive); in the test with HOP-18, > 100 µM (inactive); in the test on KM-20L2 it was > 100 µM (inactive); in the test on LXFL 529 it was > 100 µM (inactive). Also, the GI50 with SNB-78 is > 100 µM (inactive).

Regarding `COc1cccc(/C(C=O)=C(\Cl)c2ccc(OC)c(OC)c2)c1`, the GI50 with DLD-1 was 12.9 µM (inactive); with DMS-114, 15.1 µM (inactive); in the test with DMS-273, 14 µM (inactive); in the test with HOP-18, 13.6 µM (inactive); with KM-20L2 it was 19.7 µM (inactive); with LXFL 529 it was 11.6 µM (inactive). Also, the results for the GI50 in the test on SNB-78 and in the test on XF498 were 13 µM (inactive) and 17.3 µM (inactive), respectively.

As for `C=CC/C=C/Cc1csc(C(C)(C)C(O)C/C=C/C(=C)CCNC(=O)OC)n1` (centres undefined), the GI50 is 83.4 µM (inactive) in the test on DLD-1; < 0.0132 µM (active) with DMS-114; 3.26 µM (inactive) in the test with DMS-273; 51.2 µM (inactive) in the test on KM-20L2; 21.2 µM (inactive) in the test on LXFL 529; > 50 µM (inactive) with XF498.
